pEC50: −log10 of the molar value.
Tested on: FSK-4 cells
Assay: Assay (IV): Glucose utilisation in FSK-4 cells
Type: cell-based
Conditions: FSK-4 cells; for pEC50: glucose utilisation, 24 hours incubation, read-out: FSK4 EC50; for Emax: maximal efficacy relative to FCCP, read-out: FSK4 Emax (% of FCCP)

pEC50	Structure (SMILES)	Emax [%]
7.52	Cc1c(Br)cc(C(C)(C)C)c(O)c1C(=O)Nc1ccc([N+](=O)[O-])cc1Cl [Example 37, 3-Bromo-5-Tert-Butyl-N-(2-Chloro-4-Nitro-Phenyl)-6-Hydroxy-2-Methyl-Benzamide]	110
> 7.52	Cc1c(Cl)cc(C(C)(C)C)c(O)c1C(=O)Nc1ccc([N+](=O)[O-])cc1C(F)(F)F [Example 50, 3-Tert-Butyl-5-Chloro-2-Hydroxy-6-Methyl-N-(4-Nitro-2-Trifluoromethyl-Phenyl)-Benzamide]	75
> 7.52	Cc1c(Br)cc(C(C)(C)C)c(O)c1C(=O)Nc1ccc([N+](=O)[O-])cc1C(F)(F)F [Example 58, 3-Bromo-5-Tert-Butyl-6-Hydroxy-2-Methyl-N-(4-Nitro-2-Trifluoromethyl-Phenyl)-Benzamide]	100

More lines, now with the values behind:

Structure (SMILES)	pEC50	Emax [%]
N#CC(C#N)=NNc1ccc(OC(F)(F)F)cc1 [Example 27, Carbonylcyanide p-Trifluoromethoxy-Phenylhydrazone, reference compound]	6.00	100
N#CC(C#N)=Cc1c[nH]c2ccc(Cl)cc12 [Example 30, 2-((5-Chloro-1H-Indol-3-Yl)Methylene)Malononitrile]	4.30	100
N#CC(C#N)=Cc1c(Cl)[nH]c2ccccc12 [Example 34, 2-(2-Chloro-1H-Indol-3-Ylmethylene)-Malononitrile]	6.40	90
Cc1cc(C(C#N)c2ccc(Cl)cc2)c(Cl)cc1NC(=O)c1c(C)c(Br)cc(C(C)(C)C)c1O (stereo not drawn) [Example 56, 3-Bromo-5-Tert-Butyl-N-{5-Chloro-4-[(4-Chloro-Phenyl)-Cyano-Methyl]-2-Methyl-Phenyl}-6-Hydroxy-2-Methyl-Benzamide]	5.10	105
CC(=C(C#N)C#N)c1cc(C(C)(C)C)c(O)c(C(C)(C)C)c1 [Example 75, 2-[1-(3,5-Di-Tert-Butyl-4-Hydroxy-Phenyl)-Ethylidene]-Malononitrile]	6.15	75
CC(C)(C)c1cc(/C=C(\C#N)c2ccc([N+](=O)[O-])cc2)cc(C(C)(C)C)c1O [Example 77, 3-(3,5-Di-Tert-Butyl-4-Hydroxy-Phenyl)-2-(4-Nitro-Phenyl)-Acrylonitrile]	6.00	110

From US20040138301A1, “Chemical uncouplers for the treatment of obesity” (priority 2002, published 2004)
